Test results published in US20260226071A1, “2, 4-DIANILINOPYRIMIDINE-BASED AURORA-A KINASE SELECTIVE DEGRADATION INDUCING COMPOUNDS” (UPPTHERA, INC., priority 2023, published 2026).
pIC50: −log10 of the molar value.

What was measured:
NCI-H446 cell line = assay: Cell viability assay for NCI-H446 cell line; format: cell-based; details: Homo sapiens, NCI-H446, 120 h; H446 cells, 5 days culture, EZ-Cytox; read-out: IC50 value (Level)
Source text: The NCI-H446 (hereafter H446) cell lines were provided from American Type Culture Collection (ATCC). For cell culture, RPMI medium 1640 (Gibco, Cat. No. 22400-089; Lot. No. 2522717), FBS (Gibco, Cat. No. 16000-044; Lot. No. 2716756P), Penicillin/Streptomycin (PS) (Gibco, Cat. No. 15140-122; Lot. No. 2585636), 75T cell culture flask (SPL, Cat. No. 70075), 96 well cell culture plate (SPL, Cat. No. 30096), PBS pH 7.4 (Gibco, Cat. No. 10010-023; Lot. No. 2561466), TrypLE™ Express (Gibco, Cat. No. 12605-010; Lot. No. 2492811), counting chamber (hematocytometer) (Hirschmann, Cat. No. 8100204) and 0.4% Trypan Blue solution (DYNEBIO, Cat. No. CBT3710; Lot. No. 20231017) were used. Cells were cultured in RPMI 1640 medium supplemented with 10% FBS and 1% PS and incubated at 37° C., 5% CO2 condition in CO2 incubator (ThermoScientific, Cat. No. 4111).
For experiment, the present compounds were fully dissolved in DMSO (Sigma-Aldrich Cat. No. D2438, Lot. No. RNBL7287.
In each well of 96-well cell culture plate, […] cells of H446 cell lines were seeded in 150 μl of total medium volume. After 24 hours of cell seeding, the present compounds were treated.
The present compounds were each diluted 3-folds from the highest concentration of 1000 nM to the lowest concentration of 0.15 nM. The compound was added to each well to make the total volume of […] and the cells were cultured for 5 days in CO2 incubator (Thermo Fisher Science, Cat. No. 4111).
Thereafter, 20 μl of EZ-Cytox (DOGEN, Cat. NO. EZ-3000, Lot. No. DLS2308) was added to each well and the cells were cultured for 4 hours at the same condition in CO2 incubator. After culture, the absorbance of the sample was measured by setting the wavelength of a plate reader (BMG Labtech, CLARIOstar Plus) to […]. The samples were shaked for 2 minutes in the plate reader before measurement.

Aurora kinase A (AURKA) = molecular target: T1, Aurora kinase A (AURKA) (Homo sapiens, UniProt O14965); assay: Luciferase assay for AURKA in HeLa LgBit (AURKA-HiBit KI) cell line; format: cell-based; details: HeLa LgBit (AURKA-HiBit KI) cells, measured after 12 hours
T1 construct: endogenous in cells; host or cells: HeLa LgBit (AURKA-HiBit KI), CRISPR/Cas9 knock-in at the endogenous AURKA locus
T1 sequence (O14965 1-403): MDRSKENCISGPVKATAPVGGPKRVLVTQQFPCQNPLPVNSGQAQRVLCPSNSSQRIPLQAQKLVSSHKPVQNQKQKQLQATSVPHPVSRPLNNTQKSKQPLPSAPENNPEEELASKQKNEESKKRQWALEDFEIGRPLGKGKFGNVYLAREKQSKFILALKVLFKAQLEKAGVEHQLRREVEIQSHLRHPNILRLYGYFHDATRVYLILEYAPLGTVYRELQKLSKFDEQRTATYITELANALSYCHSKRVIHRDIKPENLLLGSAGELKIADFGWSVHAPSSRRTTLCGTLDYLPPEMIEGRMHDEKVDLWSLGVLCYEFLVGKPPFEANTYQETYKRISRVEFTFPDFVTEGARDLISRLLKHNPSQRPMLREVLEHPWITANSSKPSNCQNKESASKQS
Procedure, shortened: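 Test compounds (10 nM or 100 nM) added to AURKA-HiBit knock-in HeLa LgBit cells that had been pre-loaded with Endurazine for 2 h following an 18 h culture at 3×10^4 cells. Endogenous AURKA-HiBit level followed by luminescence (470-480 nm), measured after 12 h.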

Structure (SMILES): O=C1CCC(Nc2ccc(N3CCN(CCC4CCN(NC(=O)c5ccc(Nc6ncc(F)c(Nc7ccc(C(=O)Nc8ccccc8Cl)cc7)n6)cc5)CC4)CC3)c(F)c2)C(=O)N1 (stereo not drawn) [Compound 55, N-(2-chlorophenyl)-4-((2-((4-((4-(2-(4-(4-((2,6-dioxopiperidin-3-yl)amino)-2-fluorophenyl)piperazin-1-yl)ethyl)piperidin-1-yl)carbamoyl)phenyl)amino)-5-fluoropyrimidin-4-yl)amino)benzamide]
- pIC50 (NCI-H446 cell line): > 7.30
- luminescence value (Level) (Aurora kinase A (AURKA); 10 nM compound): A (A is <0.3)
- luminescence value (Level) (Aurora kinase A (AURKA); 100 nM compound): A (A is <0.2)

Structure (SMILES): O=C1CCC(c2ccc(N3CCC(CN4CCC(NC(=O)c5ccc(Nc6ncc(F)c(Nc7ccc(C(=O)Nc8ccccc8Cl)cc7)n6)cc5)CC4)C3)cc2)C(=O)N1 (stereo not drawn) [Compound 9, N-(2-chlorophenyl)-4-((2-((4-((1-((1-(4-(2,6-dioxopiperidin-3-yl)phenyl)pyrrolidin-3-yl)methyl)piperidin-4-yl)carbamoyl)phenyl)amino)-5-fluoropyrimidin-4-yl)amino)benzamide]
- pIC50 (NCI-H446 cell line): > 7.30
- luminescence value (Level) (Aurora kinase A (AURKA); 10 nM compound): B (B is 0.3 to 0.5)
- luminescence value (Level) (Aurora kinase A (AURKA); 100 nM compound): A (A is <0.2)

Structure (SMILES): O=C1CCC(c2ccc(N3CCN(CCCC4CCN(NC(=O)c5ccc(Nc6ncc(F)c(Nc7ccc(C(=O)Nc8ccccc8Cl)cc7)n6)cc5)CC4)CC3)cc2)C(=O)N1 (stereo not drawn) [Compound 52, N-(2-chlorophenyl)-4-((2-((4-((4-(3-(4-(4-(2,6-dioxopiperidin-3-yl)phenyl)piperazin-1-yl)propyl)piperidin-1-yl)carbamoyl)phenyl)amino)-5-fluoropyrimidin-4-yl)amino)benzamide]
- pIC50 (NCI-H446 cell line): > 7.30
- luminescence value (Level) (Aurora kinase A (AURKA); 10 nM compound): A (A is <0.3)
- luminescence value (Level) (Aurora kinase A (AURKA); 100 nM compound): A (A is <0.2)

Structure (SMILES): O=C1CCC(c2ccc(N3CCC(CN4CC5(CC(NC(=O)c6ccc(Nc7ncc(F)c(Nc8ccc(C(=O)Nc9ccccc9Cl)cc8)n7)cc6)C5)C4)CC3)c(F)c2)C(=O)N1 (stereo not drawn) [Compound 77, N-(2-chlorophenyl)-4-((2-((4-((2-((1-(4-(2,6-dioxopiperidin-3-yl)-2-fluorophenyl)piperidin-4-yl)methyl)-2-azaspiro[3.3]heptan-6-yl)carbamoyl)phenyl)amino)-5-fluoropyrimidin-4-yl)amino)benzamide]
- pIC50 (NCI-H446 cell line): 7.00 to 7.30
- luminescence value (Level) (Aurora kinase A (AURKA); 10 nM compound): A (A is <0.3)
- luminescence value (Level) (Aurora kinase A (AURKA); 100 nM compound): A (A is <0.2)

Structure (SMILES): O=C1CCC(c2ccc(N3CCN(Cc4ccc(NC(=O)c5ccc(Nc6ncc(F)c(Nc7ccc(C(=O)Nc8ccccc8Cl)cc7)n6)cc5)cc4)CC3)cc2)C(=O)N1 (stereo not drawn) [Compound 13, N-(2-chlorophenyl)-4-((2-((4-((4-((4-(4-(2,6-dioxopiperidin-3-yl)phenyl)piperazin-1-yl)methyl)phenyl)carbamoyl)phenyl)amino)-5-fluoropyrimidin-4-yl)amino)benzamide]
- pIC50 (NCI-H446 cell line): < 6.70
- luminescence value (Level) (Aurora kinase A (AURKA); 10 nM compound): C (C is 0.5 to 0.7)
- luminescence value (Level) (Aurora kinase A (AURKA); 100 nM compound): B (B is 0.2 to 0.4)

Structure (SMILES): O=C1CCC(c2ccc(N3CCN(CCC4CCN(NC(=O)c5ccc(Nc6ncc(F)c(Nc7ccc(C(=O)Nc8ccccc8)cc7)n6)cc5)CC4)CC3)cc2)C(=O)N1 (stereo not drawn) [Compound 103, 4-[[2-[4-[[4-[2-[4-[4-(2,6-dioxo-3-piperidyl)phenyl]piperazin-1-yl]ethyl]-1-piperidyl]carbamoyl]anilino]-5-fluoro-pyrimidin-4-yl]amino]-N-phenyl-benzamide]
- pIC50 (NCI-H446 cell line): 7.00 to 7.30
- luminescence value (Level) (Aurora kinase A (AURKA); 10 nM compound): B (B is 0.3 to 0.5)
- luminescence value (Level) (Aurora kinase A (AURKA); 100 nM compound): A (A is <0.2)

Structure (SMILES): O=C1CCC(c2ccc(N3CC4(CCN(CC5CCN(NC(=O)c6ccc(Nc7ncc(F)c(Nc8ccc(C(=O)Nc9ccccc9Cl)cc8)n7)cc6)CC5)CC4)C3)c(F)c2)C(=O)N1 (stereo not drawn) [Compound 78, N-(2-chlorophenyl)-4-[[2-[4-[[4-[[2-[4-(2,6-dioxo-3-piperidyl)-2-fluoro-phenyl]-2,7-diazaspiro[3.5]nonan-7-yl]methyl]-1-piperidyl]carbamoyl]anilino]-5-fluoro-pyrimidin-4-yl]amino]benzamide]
- pIC50 (NCI-H446 cell line): 7.00 to 7.30
- luminescence value (Level) (Aurora kinase A (AURKA); 10 nM compound): B (B is 0.3 to 0.5)
- luminescence value (Level) (Aurora kinase A (AURKA); 100 nM compound): A (A is <0.2)

Structure (SMILES): O=C1CCC(c2ccc(N3CCN(CCC4CCN(NC(=O)c5ccc(Nc6ncc(F)c(Nc7ccc(C(=O)Nc8ccccc8Cl)cc7)n6)cc5)CC4)CC3)cc2F)C(=O)N1 (stereo not drawn) [Compound 82, N-(2-chlorophenyl)-4-((2-((4-((4-(2-(4-(4-(2,6-dioxopiperidin-3-yl)-3-fluorophenyl)piperazin-1-yl)ethyl)piperidin-1-yl)carbamoyl)phenyl)amino)-5-fluoropyrimidin-4-yl)amino)benzamide]
- pIC50 (NCI-H446 cell line): > 7.30
- luminescence value (Level) (Aurora kinase A (AURKA); 10 nM compound): A (A is <0.3)
- luminescence value (Level) (Aurora kinase A (AURKA); 100 nM compound): A (A is <0.2)

Structure (SMILES): O=C1CCC(c2ccc(N3CCN(CCC4CCN(NC(=O)c5ccc(Nc6ncc(F)c(Nc7ccc(C(=O)Nc8ccccc8Cl)cc7)n6)cc5)CC4)CC3)nc2)C(=O)N1 (stereo not drawn) [Compound 56, N-(2-chlorophenyl)-4-[[2-[4-[[4-[2-[4-[5-(2,6-dioxo-3-piperidyl)-2-pyridyl]piperazin-1-yl]ethyl]-1-piperidyl]carbamoyl]anilino]-5-fluoro-pyrimidin-4-yl]amino]benzamide]
- pIC50 (NCI-H446 cell line): > 7.30
- luminescence value (Level) (Aurora kinase A (AURKA); 10 nM compound): A (A is <0.3)
- luminescence value (Level) (Aurora kinase A (AURKA); 100 nM compound): A (A is <0.2)

Structure (SMILES): O=C1CCC(c2ccc(N3CCN(CCC4CCN(NC(=O)c5ccc(Nc6ncc(F)c(Nc7ccc(C(=O)Nc8ccccc8Cl)cc7)n6)cn5)CC4)CC3)cc2)C(=O)N1 (stereo not drawn) [Compound 83, 5-[[4-[4-[(2-chlorophenyl)carbamoyl]anilino]-5-fluoro-pyrimidin-2-yl]amino]-N-[4-[2-[4-[4-(2,6-dioxo-3-piperidyl)phenyl]piperazin-1-yl]ethyl]-1-piperidyl]pyridine-2-carboxamide]
- pIC50 (NCI-H446 cell line): < 6.70
- luminescence value (Level) (Aurora kinase A (AURKA); 10 nM compound): B (B is 0.3 to 0.5)
- luminescence value (Level) (Aurora kinase A (AURKA); 100 nM compound): A (A is <0.2)

Structure (SMILES): O=C1CCC(c2ccc(N3CCN(CC[C@H]4CC[C@H](NC(=O)c5ccc(Nc6ncc(F)c(Nc7ccc(C(=O)Nc8ccccc8Cl)cc7)n6)cc5)CC4)CC3)cc2)C(=O)N1 (stereo partly drawn) [Compound 17, N-(2-chlorophenyl)-4-((2-((4-(((1r,4r)-4-(2-(4-(4-(2,6-dioxopiperidin-3-yl)phenyl)piperazin-1-yl)ethyl)cyclohexyl)carbamoyl)phenyl)amino)-5-fluoropyrimidin-4-yl)amino)benzamide]
- pIC50 (NCI-H446 cell line): 7.00 to 7.30
- luminescence value (Level) (Aurora kinase A (AURKA); 10 nM compound): A (A is <0.3)
- luminescence value (Level) (Aurora kinase A (AURKA); 100 nM compound): A (A is <0.2)

Structure (SMILES): O=C1CCC(c2ccc(N3CCN(CCN4CCC(C(=O)Nc5ccc(Nc6ncc(F)c(Nc7ccc(C(=O)Nc8ccccc8Cl)cc7)n6)cc5)CC4)CC3)cc2)C(=O)N1 (stereo not drawn) [Compound 70, N-(4-((4-((4-((2-chlorophenyl)carbamoyl)phenyl)amino)-5-fluoropyrimidin-2-yl)amino)phenyl)-1-(2-(4-(4-(2,6-dioxopiperidin-3-yl)phenyl)piperazin-1-yl)ethyl)piperidine-4-carboxamide]
- pIC50 (NCI-H446 cell line): 7.00 to 7.30
- luminescence value (Level) (Aurora kinase A (AURKA); 10 nM compound): A (A is <0.3)
- luminescence value (Level) (Aurora kinase A (AURKA); 100 nM compound): A (A is <0.2)

Structure (SMILES): CN(CC1CCN(c2ccc(C3CCC(=O)NC3=O)cc2F)CC1)C1CCN(NC(=O)c2ccc(Nc3ncc(F)c(Nc4ccc(C(=O)Nc5ccccc5Cl)cc4)n3)cc2)CC1 (stereo not drawn) [Compound 81, N-(2-chlorophenyl)-4-((2-((4-((4-(((1-(4-(2,6-dioxopiperidin-3-yl)-2-fluorophenyl)piperidin-4-yl)methyl)(methyl)amino)piperidin-1-yl)carbamoyl)phenyl)amino)-5-fluoropyrimidin-4-yl)amino)benzamide]
- pIC50 (NCI-H446 cell line): > 7.30
- luminescence value (Level) (Aurora kinase A (AURKA); 10 nM compound): A (A is <0.3)
- luminescence value (Level) (Aurora kinase A (AURKA); 100 nM compound): A (A is <0.2)
